The compounds below were run against T1, Human MIF (MIF tautomerase) (Homo sapiens, UniProt P14174) (assay: MIF Tautomerase Inhibitory Assay with L-Dopachrome Methyl Ester). Details: relative potency class, MIF tautomerase inhibition; L-dopachrome methyl ester substrate, pH 7.34, no pre-incubation; read-out: IC50.
T1 construct: purchased ProSpec
T1 sequence (P14174 2-115 limits assumed): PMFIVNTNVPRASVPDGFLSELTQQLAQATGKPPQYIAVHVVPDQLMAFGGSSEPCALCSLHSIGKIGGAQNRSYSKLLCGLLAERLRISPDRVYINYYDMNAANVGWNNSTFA
Format: biochemical
Method: MIF Tautomerase Inhibitory Assay with L-Dopachrome Methyl Ester
Assay Method (pH 7.34, 0.017-0.033% DMSO, 0.034% EtOH): A fresh stock solution of L-dopachrome methyl ester in MeOH was prepared at 55-65 mM through oxidation of L-3,4-dihydroxyphenylalanine methyl ester hydrochloride with sodium periodate according to the procedure described in WO9729635A1. MeOH was removed from 0.5 mL of the L-dopachrome methyl ester/MeOH solution (55-65 mM) under a stream of argon and the residue taken up in appropriate amount of water to prepare a substrate solution (7-10 mM). Active Human MIF (from ProSpec) ([…]) was dissolved in 675 μL 0.1% bovine serum albumin (BSA) in water, and the resultant MIF solution (1 volume) mixed with 55 volumes of Na2HPO4 buffer (50 mM, pH 7.34) to form a 265 ng/mL MIF working solution. MIF working solution (280 μL) or a no-MIF working solution (prepared by mixing 0.1% BSA (1 volume) with the aforementioned Na2HPO4 buffer (55 volumes)) was transferred to wells in a column of 8 wells on a 96-well plate in a Plate Reader (SPECTRAmax Plus 384, Molecular Devices), and 5 μL of H2O/DMSO (99/1) containing no inhibitor or an inhibitor (whose concentration was verified by HPLC). Without pre-mixing or pre-incubation, 10 μL freshly prepared L-dopachrome methyl ester/H2O solution (7-10 mM) was added to each well with a multi-pipet. The assay samples were mixed immediately by sucking up and expelling the contents of the wells three times with a multi-pipet. The absorbance (A1) at 475 nm was then recorded for each sample every 2 s for 3 min. After 5-6 min, the samples were monitored again for 3 min with a reading every two seconds at 475 nm (A2). It can be shown that when [substrate]<<Km, plots of Ln(A1−A2) versus time are linear with slopes m (Eq 1). IC50 values were estimated from Eq 2-5, the inhibitor concentration [I] in the assay mixture and values of m in the presence (mi), absence (mo) of the inhibitor, the value of m observed for the non-MIF blank (mn), the MIF concentration (e), and the specificity constant for the MIF catalyzed reaction (kcat/Km). Ln(A1−A2)=−mt (Eq 1) F=(mi−mn)/(mo−mn) (Eq 2) Wherein mo−mn=ekcat/Km (Eq 3) and mi−mn=(ekcat/Km)[…] (Eq 4) IC50=[I]F/(1−F) (Eq 5)
The compounds listed in Table 1, provided herein, were prepared via procedures identical or similar to those described in the Examples 1-85. The listed compounds were >95% pure by HPLC. Each listed compound yielded a mass spectrum consistent with its structure. Concentrations of MIF tautomerase inhibitors used in the assay were verified by HPLC and the extinction coefficients of the inhibitors. The designated relative potency of MIF tautomerase inhibitors is based on the IC50 as determined by the method described in Biochemical Assay as follows: A, IC50<1 μM; B, 1 μM≦IC50<5 μM; C, 5 μM≦IC50<10 μM; D, 10 μM≦IC50<50 μM; E, 50 μM≦IC50<200 μM.

Row | IC50 [nM] | Structure (SMILES)
1 | < 1000 | COc1cc(OC(C)[C@H]2CC[C@H](CN3Cc4ccc(O)c(F)c4C3=O)CC2)ccc1F (stereo partly shown)
2 | < 1000 | CC(Oc1cccc(OC(F)(F)F)c1)[C@H]1CC[C@H](CN2Cc3ccc(O)c(F)c3C2=O)CC1 (stereo partly shown)
3 | < 1000 | CCC(Oc1cccc(OC(F)(F)F)c1)C1CCC(CN2Cc3ccc(O)c(F)c3C2=O)CC1 (stereo not shown)
4 | < 1000 | O=C1c2cc(O)ccc2CN1C[C@H]1CC[C@H](COc2cccc(O)c2)CC1
5 | < 1000 | CCCC(Oc1cccc(F)c1)[C@H]1CC[C@H](CN2Cc3ccc(O)cc3C2=O)CC1 (stereo partly shown)
6 | < 1000 | CCC(Oc1cccc(F)c1)[C@H]1CC[C@H](CN2Cc3ccc(O)cc3C2=O)CC1 (stereo partly shown)
7 | < 1000 | CC(Oc1cccc(F)c1)[C@H]1CC[C@H](CN2Cc3cc(F)c(O)cc3C2=O)CC1 (stereo partly shown)
8 | < 1000 | O=C1c2cc(O)ccc2CN1C[C@H]1CC[C@H](COc2ccccc2)CC1
9 | < 1000 | CC[C@@H](C(=O)OC(C)[C@H]1CC[C@H](CN2Cc3ccc(O)c(F)c3C2=O)CC1)c1ccccc1 (stereo partly shown)
10 | < 1000 | CCC(C(=O)OC(C)[C@H]1CC[C@H](CN2Cc3cc(F)c(O)cc3C2=O)CC1)c1ccccc1 (stereo partly shown)
11 | < 1000 | CC(OC(=O)c1ccccc1)[C@H]1CC[C@H](CN2Cc3ccc(O)c(F)c3C2=O)CC1 (stereo partly shown)
12 | < 1000 | CC(OC(=O)CCC(=O)O)[C@H]1CC[C@H](CN2Cc3ccc(O)c(F)c3C2=O)CC1 (stereo partly shown)
13 | < 1000 | CCOC(CCC1CCCCC1)[C@H]1CC[C@H](CN2Cc3ccc(O)cc3C2=O)CC1 (stereo partly shown)
14 | 10000 to 50000 | CC(CC1CCCCC1)N1Cc2ccc(O)cc2C1=O (stereo not shown)
15 | 10000 to 50000 | O=C1c2cc(O)ccc2CN1CCc1ccc(F)cc1

More lines, now with the values behind:

Row | Structure (SMILES) | IC50 [nM]
16 | CNCCOc1cccc(OC[C@H]2CC[C@H](CN3Cc4ccc(O)c(F)c4C3=O)CC2)c1 | < 1000
17 | CNCCOc1cccc(OC(C)[C@H]2CC[C@H](CN3Cc4ccc(O)c(F)c4C3=O)CC2)c1 (stereo partly shown) | < 1000
18 | O=C1OCc2ccc(OC[C@H]3CC[C@H](CN4Cc5ccc(O)cc5C4=O)CC3)cc21 | < 1000
19 | COc1cc(F)cc(OC[C@H]2CC[C@H](CN3Cc4ccc(O)cc4C3=O)CC2)c1 | < 1000
20 | COc1cccc(OC(C)[C@H]2CC[C@H](CN3Cc4ccc(O)c(F)c4C3=O)CC2)c1 (stereo partly shown) | < 1000
21 | CCC(Oc1cccc(OC)c1)[C@H]1CC[C@H](CN2Cc3ccc(O)c(F)c3C2=O)CC1 (stereo partly shown) | < 1000
22 | COc1cccc(OC[C@H]2CC[C@H](CN3Cc4ccc(O)cc4C3=O)CC2)c1 | < 1000
23 | COc1cccc(OC(C)[C@H]2CC[C@H](CN3Cc4cc(F)c(O)c(F)c4C3=O)CC2)c1 (stereo partly shown) | < 1000
24 | CC(Oc1cccc(F)c1)[C@H]1CC[C@H](CN2Cc3cc(F)c(O)c(F)c3C2=O)CC1 (stereo partly shown) | < 1000
25 | CC(Oc1cccc(F)c1)[C@H]1CC[C@H](CN2Cc3ccc(O)c(F)c3C2=O)CC1 (stereo partly shown) | < 1000
26 | O=C1c2c(ccc(O)c2F)CN1C[C@H]1CC[C@H](COc2cccc(F)c2)CC1 | < 1000
27 | CC(Oc1cccc(F)c1)[C@H]1CC[C@H](CN2Cc3ccc(O)cc3C2=O)CC1 (stereo partly shown) | < 1000
28 | O=C1c2cc(O)ccc2CN1C[C@H]1CC[C@H](COc2cccc(F)c2)CC1 | < 1000
29 | O=C1c2cc(O)ccc2CN1C[C@H]1CC[C@H](COc2ccccc2F)CC1 | < 1000
30 | O=C1c2cc(O)ccc2CN1C[C@H]1CC[C@H](COc2ccc(F)cc2)CC1 | < 1000
31 | O=C1c2cc(O)ccc2CN1C[C@H]1CC[C@H](C(=O)N2CCCCC2)CC1 | < 1000
32 | CC(C)(C)COC(=O)[C@H]1CC[C@H](CN2Cc3ccc(O)cc3C2=O)CC1 | < 1000
33 | CC(C)OC(=O)[C@H]1CC[C@H](CN2Cc3ccc(O)cc3C2=O)CC1 | < 1000
34 | COC(=O)[C@H]1CC[C@H](CN2Cc3ccc(O)cc3C2=O)CC1 | < 1000
35 | CC(=O)OC(CCC1CCCCC1)[C@H]1CC[C@H](CN2Cc3ccc(O)cc3C2=O)CC1 (stereo partly shown) | < 1000
36 | O=C1c2cc(O)ccc2CN1[C@H](CO)C1CCCCC1 | 10000 to 50000
37 | CC1CCCCC1N1Cc2ccc(O)cc2C1=O (stereo not shown) | 10000 to 50000
38 | O=C1c2cc(O)ccc2CN1[C@H]1CC[C@H](O)CC1 | 10000 to 50000
39 | O=C1c2cc(O)ccc2CN1Cc1ccccc1 | 10000 to 50000
40 | CCOC(=O)CN1Cc2ccc(O)cc2C1=O | 50000 to 200000

Reference: patent US9617212B2, “Isoindolin-1-ones as macrophage migration inhibitory factor (MIF) inhibitors” (Controlled Chemicals, Inc., priority 2013, dated 2017)
